These results are taken from patent US20200079786A1, “ANALOGS OF […] AS SOLUBLE EPOXIDE HYDROLASE INHIBITORS” (UNIVERSITAT DE BARCELONA, priority 2015, published 2020).

In brackets after ≈: the same amount, converted by molar mass. Like-named read-outs stand apart in the source and are kept apart here.

One series deals with T1, recombinant human sEH (Homo sapiens, UniProt P34913).
T1 construct: purchased Cayman Chemical 10011669
T1 sequence (P34913 1-555): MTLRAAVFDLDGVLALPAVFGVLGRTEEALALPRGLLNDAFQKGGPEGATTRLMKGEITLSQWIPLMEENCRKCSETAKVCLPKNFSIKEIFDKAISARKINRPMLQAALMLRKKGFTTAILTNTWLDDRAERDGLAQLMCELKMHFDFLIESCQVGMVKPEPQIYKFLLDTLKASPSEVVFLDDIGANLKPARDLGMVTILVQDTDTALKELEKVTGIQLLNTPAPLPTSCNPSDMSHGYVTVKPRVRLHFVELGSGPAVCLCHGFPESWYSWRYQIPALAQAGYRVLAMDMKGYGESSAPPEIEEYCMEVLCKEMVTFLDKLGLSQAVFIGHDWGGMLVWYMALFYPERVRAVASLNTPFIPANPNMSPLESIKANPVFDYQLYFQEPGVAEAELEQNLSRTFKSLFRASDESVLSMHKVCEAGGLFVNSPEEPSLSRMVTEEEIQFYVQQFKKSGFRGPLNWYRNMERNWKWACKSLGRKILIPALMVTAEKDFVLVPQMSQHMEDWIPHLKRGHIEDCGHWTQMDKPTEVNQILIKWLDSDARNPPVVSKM
Nature of the series: In vitro determination of sEH inhibition activity (fluorescent assay, PHOME substrate). Format: biochemical. Particulars: mean ± Standard Error, min. three replicates, read-out: IC50 (nM) ± SE, sEH inhibition activity. As for the experimental part:
3-(Phenyl-oxiranyl)-acetic acid cyano-(6-methoxy-naphthalen-2-yl)-methyl ester (PHOME; from Cayman Chemical, item number 10009134; CAS 1028430-42-3); cf. N. M. Wolf et al., Anal. Biochem. 2006, vol. 355, pp. 71-80.
Solutions: • Assay buffer: Bis/Tris HCl 25 mM pH 7.0 containing 0.1 mg/mL of bovine serum albumin (BSA). • PHOME at 200 μM in DMSO. • Solution of recombinant human sEH (Cayman Chemical, item number 10011669), diluted with assay buffer. • Inhibitors dissolved in DMSO at appropriated concentrations.
In a black 96-well plate (Greiner Bio-One, item number 655900), fill the background wells with 90 μL and the positive control and inhibitor wells with 85 μL of assay buffer. Add 5 μL of DMSO to background and positive control wells, and then add 5 μL of inhibitor solution in inhibitor wells. Add 5 μL of the solution of hsEH to the positive control and inhibitor wells and mix several time. Prepare a 1/21 dilution of the solution of PHOME with assay buffer according to final volume required, and then add 105 μL of each well. Shake carefully the plate for 10 seconds and incubate for 5 minutes at room temperature. […] Results were obtained by regression analysis from at least three data points in a linear region of the curve. IC50 values are average of minimum three independent replicates.

Series [1] can be described thus: Determination of water solubility (nephelometry). Format: physicochemical. Particulars: aqueous with cosolvent or surfactant or cyclodextrin, kinetic from dmso stock; 5% DMSO: 95% PBS buffer, 37° C., read after 2 and 4 h; read-out: S (solubility).
A short description of series [2]: Parallel artificial membrane permeation assay for blood-brain barrier (PAMPA-BBB). Format: in vitro ADME, porcine. Particulars: PBS:EtOH (70:30). Here is the method:
The in vitro permeability (Pe) of the test compounds through lipid extract of porcine brain membrane was determined. Assayed compounds were tested using a mixture of PBS:EtOH (70:30). […] From this equation and taking into account the limits established by Di et al. for BBB permeation, the ranges of permeability were established, as follows.
(In general: In PAMPA a lipid-coated filter parts donor from acceptor wells.)

Series [3] in a line: Determination of cytotoxicity in THLE-2 cells (ATP viability). Particulars: human. Format: cell-based. Here is the method: Cytotoxic effects of assayed compounds were tested using the immortalized human liver cell line THLE-2 (ATCC CRL-2706). Cells were cultured in BEGM medium (Clonetics # CC-4175) containing all the supplements kit except additional EGF and G418. Medium was completed by adding 0.7 μg/mL phosphoethanolamine, 0.5 ng/mL epidermal growth factor, antibiotics (penicillin and streptomycin) and 10% fetal bovine serum (FBS).
Cells were plated in 96-well black microplates at 10,000 cells/well density and were incubated at 37° C. (5% CO2, 95% humidity) for 24 h to allow the cells to adhere and form a monolayer. Test compounds were solubilized in 100% DMSO at a concentration curve way and then diluted with cell culture medium containing 10% DMSO. The final concentrations of the test compounds (1% DMSO) ranged from 0-100 μM in a final volume of 200 μL. Microplates were maintained at 37° C. (5% CO2, 95% humidity) during 3 days. Following this 72 h exposure to test compounds, cell viability in each well was determined by measuring the concentration of cellular adenosine triphosphate (ATP) using the ATP1Step Kit as described by the manufacturer (Perkin-Elmer). In a typical procedure, 50 μL of cell reagent is added to all wells of each test plate followed by incubation for 10 min at room temperature on an orbital shaker. ATP concentration was determined by reading chemical luminescence using the Envision plate reader (PerkinElmer). The percentage of viable cells relative to the non-drug treated controls was determined for each well and LC50 values were calculated as concentrations projected to kill 50% of the cells following a 72 h exposure, an average of minimum two independent replicates.

For the next series, the target named is T2, sEH in AR42j cells (Rattus norvegicus, UniProt P80299).
T2 sequence (P80299 1-554): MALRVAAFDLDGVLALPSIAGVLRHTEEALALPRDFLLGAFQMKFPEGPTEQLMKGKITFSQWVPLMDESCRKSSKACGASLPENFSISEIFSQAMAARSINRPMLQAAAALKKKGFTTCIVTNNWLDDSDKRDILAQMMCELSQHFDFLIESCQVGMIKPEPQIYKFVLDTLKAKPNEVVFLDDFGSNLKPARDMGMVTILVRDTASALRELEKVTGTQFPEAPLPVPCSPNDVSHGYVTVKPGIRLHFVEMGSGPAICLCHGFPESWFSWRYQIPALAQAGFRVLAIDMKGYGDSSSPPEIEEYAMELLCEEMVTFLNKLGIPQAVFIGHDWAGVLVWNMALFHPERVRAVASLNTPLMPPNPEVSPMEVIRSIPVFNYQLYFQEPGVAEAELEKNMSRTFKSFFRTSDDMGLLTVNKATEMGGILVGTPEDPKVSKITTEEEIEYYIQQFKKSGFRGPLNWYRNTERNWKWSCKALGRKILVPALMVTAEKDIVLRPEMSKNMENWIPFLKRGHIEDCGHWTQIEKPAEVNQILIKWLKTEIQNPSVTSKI
Kind of series: In vitro determination of sEH inhibition activity in AR42j cells (cell-based fluorescent assay). Particulars: AR-42J, read-out: % Inhn. ± SE (100 μM), sEH inhibition activity in cell culture.

For the next series, the target named is T3, CYP1A2 (Homo sapiens, UniProt P05177).
T3 sequence (P05177 1-516): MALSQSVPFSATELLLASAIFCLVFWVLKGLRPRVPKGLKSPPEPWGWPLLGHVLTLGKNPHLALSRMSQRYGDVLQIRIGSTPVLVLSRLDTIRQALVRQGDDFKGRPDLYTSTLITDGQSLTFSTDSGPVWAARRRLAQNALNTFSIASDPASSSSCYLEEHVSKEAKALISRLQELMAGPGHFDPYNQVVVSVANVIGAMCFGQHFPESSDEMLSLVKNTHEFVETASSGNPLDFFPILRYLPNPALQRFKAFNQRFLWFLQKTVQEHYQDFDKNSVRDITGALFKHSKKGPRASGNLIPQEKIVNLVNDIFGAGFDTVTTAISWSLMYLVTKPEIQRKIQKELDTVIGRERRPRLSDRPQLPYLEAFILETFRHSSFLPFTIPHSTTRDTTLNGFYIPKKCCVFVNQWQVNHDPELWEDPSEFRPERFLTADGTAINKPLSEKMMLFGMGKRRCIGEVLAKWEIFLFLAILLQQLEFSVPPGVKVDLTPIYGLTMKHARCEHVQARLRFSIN
Nature of the series: Inhibition of human cytochrome P450 CYP1A2. Format: in vitro ADME. Particulars: human cytochrome P450 enzyme. From the text:
(§1) The epoxidation of arachidonic acid (AA) by selected cytochrome P450 epoxygenases generates epoxyeicosatrienoic acids (EETs). These EETs show anti-inflammatory, antihypertensive, analgesic, angiogenic, and antiatherosclerotic effects in rodents and humans. sEH converts EETs to their corresponding dihydroxyeicosatrienoic acids (DHETs), whereby the biological effects of EETs are diminished, eliminated, or altered. Among the P450 enzymes, it is known that CYP2C19 and CYP1A2 have the highest formation rate of EETs from AA (cf. A. A. El-Sherbeni et al. “Repurposing resveratrol and fluconazole to modulate human cytrochrome P450-mediated arachidonic acid metabolites”, Molecular Pharmaceutics 2016, vol. 13, pp. 1278-1288). For this reason, a highly desirable aspect of any new sEH inhibitor is selectivity in front of CYP2C19 and CYP1A2.

For another series, the target named is CYP2C19 (Homo sapiens, UniProt P33261). Kind of series: Inhibition of human cytochrome P450 CYP2C19. Format: in vitro ADME. Particulars: human cytochrome P450 enzyme.
Excerpt: as §1

Chain of CYP2C19 (P33261 whole entry): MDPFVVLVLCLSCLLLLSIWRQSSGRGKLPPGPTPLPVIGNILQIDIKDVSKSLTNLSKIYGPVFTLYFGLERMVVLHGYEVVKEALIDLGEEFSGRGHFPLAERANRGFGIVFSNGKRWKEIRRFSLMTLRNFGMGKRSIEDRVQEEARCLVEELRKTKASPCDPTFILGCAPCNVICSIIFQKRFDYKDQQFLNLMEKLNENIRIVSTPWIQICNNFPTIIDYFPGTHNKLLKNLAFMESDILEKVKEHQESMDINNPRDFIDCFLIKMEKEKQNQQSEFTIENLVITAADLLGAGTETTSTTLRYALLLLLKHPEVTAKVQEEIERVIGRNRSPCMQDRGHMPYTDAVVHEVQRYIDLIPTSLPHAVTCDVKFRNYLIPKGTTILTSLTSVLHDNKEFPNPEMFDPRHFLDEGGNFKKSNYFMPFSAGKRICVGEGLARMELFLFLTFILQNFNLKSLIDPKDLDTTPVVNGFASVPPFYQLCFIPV
Procedure for sEH in AR42j cells: Solutions Preparation: • Assay buffer 1×: add 10 mL of the CBA-Buffer (10×) to 90 mL of distilled water. • Lysis Buffer: add 50 μL of the CBA Digitonin Solution to 10 mL of Buffer Assay 1×. • Substrate Solution: dilute 10 μL of CBA sEH Substrate with 10 mL of Assay Buffer 1×. • Standards: preparation of 7 concentrations of CBA 6-methoxy-2-naphtalaldehyde from 0 until 2 M with Assay Buffer 1×. • sEH Positive Control: Prepare another stock A (1 μg/ml: 1 μL CBA sEH Positive Control+1 mL Assay Buffer 1×). From the already prepared stock A, prepare 250 μL of sEH (10 ng/mL): 2.5 μL sEH stock A+250 μL Assay Buffer 1×). • sEH Inhibitor AUDA: dilute 10 μL CBA sEH Inhibitor with 500 ml Assay Buffer 1×. • Inhibitors dissolved in DMSO at appropriated concentrations.
Seed cells in a 96-well plate at a density of (2×10^4)-(5×10^4) cells/well in 100 μL of culture medium with or without compounds to be tested. Incubation of the cells in a CO2 incubator at 37° C. for 48 hours. Aspirate the culture medium and add 200 μL of Assay Buffer 1× to each well. Centrifuge the plate at 800 rmp for 5 minutes. Aspirate the supernatant and add 100 μL of Lysis Buffer to each well. Incubate with gentle shaking on an orbital shaker for 30 minutes at room temperature. Centrifuge the plate at 3000 rpm for 20 minutes at 4° C. Transfer 90 μL of the supernatants to the 96-Well Solid Plate (black). Add 10 μL Assay Buffer 1× or 10 μL of the AUDA solution to appropriate wells. For positive control wells, add 100 μL of the 10 ng/mL sEH Positive Control to two wells. Add 200 μL of 6-methoxy-2-Naphthaldehyde Standards to corresponding wells of the black plate. Add 100 μL of the sEH Substrate Solution to each well, except the standards. Incubate the plate at 37° C. for 30 minutes. […] The intensity of fluorescence was used to analyze and calculate inhibition percentages, shown in the Table as average of minimum three independent replicates.

One may read the IC50 as the concentration at which inhibition is half-maximal. In the case of `O=C(Nc1ccc(F)c(F)c1F)N[C@@]12CC3C[C@H](C1)C[C@](C1CCCCC1)(C3)O2` (stereo in doubt) [Id, 1-(3-cyclohexyl-2-oxaadamantan-1-yl)-3-(2,3,4-trifluorophenyl)urea], the IC50 on recombinant human sEH is 17.5 ± 3.6 nM.
The solubility is the concentration that dissolves in the medium under given conditions. With `CC12CC3CC(C1)CC(NC(=O)Nc1ccc(F)c(F)c1F)(C3)O2` [Ib, 1-(3-methyl-2-oxaadamantan-1-yl)-3-(2,3,4-trifluorophenyl)urea], the solubility in series [1] was found to be 63 µM (≈ 21.4 µg/mL). The concentration for half-maximal inhibition (IC50) on recombinant human sEH was determined as 21.3 ± 5.4 nM. Also, the CNS prediction entry in series [2] is listed as “CNS+ (Compounds of high BBB permeation (CNS+): Pe (10^6 cm s^−1)>5.181)”. The CC50 at 72 h in series [3] is > 100 µM.
For `CCC12CC3CC(C1)CC(NC(=O)Nc1ccc(F)c(F)c1F)(C3)O2` [Ic, 1-(3-ethyl-2-oxaadamantan-1-yl)-3-(2,3,4-trifluorophenyl)urea] the same measures were 77 µM (≈ 27.3 µg/mL), 8.1 ± 3.2 nM, “CNS+ (Compounds of high BBB permeation (CNS+): Pe (10^6 cm s^−1)>5.181)” and > 100 µM.
Turning to `O=C(Nc1ccc(F)c(F)c1F)NC12CC3CC(C1)CC(c1ccccc1)(C3)O2` [Ie, 1-(3-phenyl-2-oxaadamantan-1-yl)-3-(2,3,4-trifluorophenyl)urea], the IC50 at recombinant human sEH turned out to be 21.3 ± 4.3 nM.
The inhibition is the relative decrease from the control value, in per cent. For `CC(=O)N1CCC(NC(=O)NC23CC4CC(CC(C4)O2)C3)CC1` [If, 1-(2-oxaadamantan-1-yl)-3-(1-acetylpiperidin-4-yl)urea], at sEH in AR42j cells, the inhibition at 100 µM amounted to 42.1 ± 5%. Also, the inhibition at 1 µM against CYP1A2 and against CYP2C19 was ≤ 6% each time. Besides, the solubility in series [1] is > 100 µM. In addition, at recombinant human sEH, the IC50 stood at 19.8 ± 6.2 nM. Further, the CC50 at 72 h in series [3] (THLE-2 cells, 72 h exposure, 0-100 μM, read-out: LC50 (μM), cytotoxicity) was > 100 µM.
